The molecules below were run against T1, Haspin (h) (Homo sapiens, UniProt Q8TF76) (assay: radiometric kinase assay (KinaseProfiler, Eurofins), Haspin). Details: in vitro radiometric kinase assay, tested at 1 nM to 10 000 nM, no pre-incubation; read-out: inhibitory activities (IC50 values) Haspin.
T1 construct: purchased Eurofins (KinaseProfiler)
T1 sequence (Q8TF76 1-798): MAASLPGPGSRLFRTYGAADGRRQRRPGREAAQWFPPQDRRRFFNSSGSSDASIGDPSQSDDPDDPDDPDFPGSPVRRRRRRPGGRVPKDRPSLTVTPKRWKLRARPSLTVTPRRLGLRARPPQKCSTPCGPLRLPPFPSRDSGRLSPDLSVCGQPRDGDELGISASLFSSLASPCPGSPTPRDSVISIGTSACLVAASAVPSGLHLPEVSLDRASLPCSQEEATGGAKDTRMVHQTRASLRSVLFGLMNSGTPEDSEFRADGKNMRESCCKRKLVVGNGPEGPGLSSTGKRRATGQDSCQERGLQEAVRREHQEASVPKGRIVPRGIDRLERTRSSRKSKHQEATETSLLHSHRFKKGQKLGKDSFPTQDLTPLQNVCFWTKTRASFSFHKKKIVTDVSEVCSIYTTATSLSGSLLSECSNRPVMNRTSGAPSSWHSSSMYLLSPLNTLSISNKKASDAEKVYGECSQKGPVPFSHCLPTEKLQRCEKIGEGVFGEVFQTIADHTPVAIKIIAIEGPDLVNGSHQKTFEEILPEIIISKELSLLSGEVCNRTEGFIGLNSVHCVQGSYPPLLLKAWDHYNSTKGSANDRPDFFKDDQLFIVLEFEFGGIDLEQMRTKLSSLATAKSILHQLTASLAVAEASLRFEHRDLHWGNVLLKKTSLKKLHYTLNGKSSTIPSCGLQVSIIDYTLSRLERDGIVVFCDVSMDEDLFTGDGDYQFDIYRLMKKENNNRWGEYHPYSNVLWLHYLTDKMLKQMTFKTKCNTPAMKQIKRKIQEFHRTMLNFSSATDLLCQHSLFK
Format: biochemical
Description: The compounds were profiled in the radiometric assays (KinaseProfiler, Eurofins).
Briefly, kinases were diluted in the buffer shown below prior to addition to the reaction mix: • CDKL3, TAF1L: 20 mM Tris/HCl pH 8.5, 0.2 mM EDTA, 0.1% β-mercaptoethanol, 0.01% Brij-35, 5% glycerol, 1 mg/ml BSA; • Haspin: 15 mM MOPS, 0.75 mM EDTA, 0.0075% Brij-35, 3.75% Glycerol, 150 mM NaCl, 0.1% β-mercaptoethanol, 1 mg/mLBSA; • CDKL4, CLK2, PIM1, TRB2: […], 1 mM EDTA, 0.01% Brij-35, 5% Glycerol, 0.1% β-mercaptoethanol, 1 mg/mL BSA.
All compounds were prepared to 50x final assay concentration in 100% DMSO. This working stock of the compound was added to the assay well as the first component in the reaction, followed by the remaining components as detailed in the general assay protocols below. There was no pre-incubation step between the compound and the kinase prior to initiation of the reaction.
Haspin (h) was incubated with 8 mM MOPS pH 7.0, 0.2 mM EDTA, 500 µM RARTLSFAEPG (SEQ ID NO. 3), 10 mM magnesium acetate and γ-^33P-ATP (specific activity and concentration as required). The reaction was initiated by the addition of the Mg/ATP mix. After incubation for 40 minutes at room temperature, the reaction was stopped by the addition of phosphoric acid to a concentration of 0.5%. An aliquot of the reaction was then spotted onto a filter and washed four times for 4 minutes in 0.425% phosphoric acid and once in methanol prior to drying and scintillation counting.
Kinase activity data were expressed as the percent remaining kinase activity in tested samples compared to the vehicle (DMSO) reactions. The compounds were tested at the following concentrations: 1 nM, 3 nM, 10 nM, 30 nM, 100 nM, 300 nM, 1000 nM, 3000 nM, and 10 000 nM; IC50 values and curve fits were then obtained.
For `Cn1ccc(Sc2ccc3scc(-c4ccncc4)c3n2)n1`, the IC50 was 500 to 3000 nM. With `Cn1cc(-c2ccc3scc(-c4ccnc(CNC(=O)OC(C)(C)C)c4)c3n2)cn1` the IC50 was 3000 to 10000 nM. With `Cn1cc(-c2ccc3scc(-c4ccc(C#N)cc4)c3n2)cn1` [Preparative Example 4, 4-(5-(1-methyl-1H-pyrazol-4-yl)thieno[3.2-b]pyridin-3-yl)benzonitrile] the IC50 was 100 to 499 nM. With `Cn1cc(-c2ccc3scc(-c4ccc(F)cc4)c3n2)cn1` [Preparative Example 6, 3-(4-fluorophenyl)-5-(1-methyl-1H-pyrazol-4-yl)-thieno[3,2-b]pyridine] the IC50 was 100 to 499 nM. Molecule `Cn1cc(-c2ccc3scc(-c4ccnc(O)c4)c3n2)cn1` [Preparative Example 18, 4-(5-(1-methyl-1H-pyrazol-4-yl)thieno[3,2-b]-pyridin-3-yl)pyridin-2-ol] has an IC50 of 100 to 499 nM. Molecule `Cn1cc(-c2ccc3scc(-c4ccnc(NC(=O)OC(C)(C)C)c4)c3n2)cn1` [Preparative Example 24, tert-butyl (4-(5-(1-methyl-1H-pyrazol-4-yl)thieno[3,2-b]pyridin-3-yl)pyridin-2-yl)carbamate] has an IC50 of 100 to 499 nM. `Cn1cc(-c2ccc3scc(-c4ccnc(N)c4)c3n2)cn1` [Preparative Example 25, 4-(5-(1-methyl-1H-pyrazol-4-yl)thieno[3,2-b]pyridin-3-yl)pyridin-2-amine] showed an IC50 of 20 to 99 nM. Molecule `Cn1cc(-c2ccc3scc(-c4cncnc4)c3n2)cn1` [Preparative Example 38, 5-(1-methyl-1H-pyrazol-4-yl)-3-(pyrimidin-5-yl)thieno[3,2-b]pyridine] has an IC50 of 100 to 499 nM. In the case of `Cn1cc(-c2ccc3scc(-c4ccc(N5CCOCC5)nc4)c3n2)cn1` [Preparative Example 42, 4-(5-(5-(1-methyl-1H-pyrazol-4-yl)thieno[3,2-b]-pyridin-3-yl)pyridin-2-yl)morpholine], the IC50 is reported as 500 to 3000 nM. Work on `Cc1ccc(S(=O)(=O)n2ccc3c(-c4csc5ccc(-c6cnn(C)c6)nc45)ccnc32)cc1` [Preparative Example 44, 5-(1-methyl-1H-pyrazol-4-yl)-3-(1-tosyl-1H-pyrrolo[2,3-b]pyridin-4-yl)thieno[3,2-b]pyridine] yielded an IC50 of 3000 to 10000 nM. For `Cn1cc(-c2ccc3scc(-c4ccnc5[nH]ccc45)c3n2)cn1` [Preparative Example 45, 5-(1-methyl-1H-pyrazol-4-yl)-3-(1H-pyrrolo[2,3-b]pyridin-4-yl)thieno[3,2-b]pyridine], the IC50 was 100 to 499 nM. Molecule `Cn1cc(-c2ccc3scc(-c4ccc5ncncc5c4)c3n2)cn1` [Preparative Example 47, 5-(1-methyl-1H-pyrazol-4-yl)-3-(quinazolin-6-yl)thieno[3,2-b]pyridine] has an IC50 of 100 to 499 nM. For `Cn1cc(-c2ccc3scc(-c4ccc5nccnc5c4)c3n2)cn1` [Preparative Example 49, 5-(1-methyl-1H-pyrazol-4-yl)-3-(quinoxalin-6-yl)thieno[3,2-b]pyridine], the IC50 was 20 to 99 nM. For `Cn1cc(-c2ccc3scc(-c4ccc5n[nH]cc5c4)c3n2)cn1` [Preparative Example 51, 3-(2H-indazol-5-yl)-5-(1-methyl-1H-pyrazol-4-yl)thieno[3,2-b]-pyridine], the IC50 was 100 to 499 nM. Molecule `Cn1cc(-c2ccc3scc(-c4cnc5ccnn5c4)c3n2)cn1` [Preparative Example 55, 5-(1-methyl-1H-pyrazol-4-yl)-3-(pyrazolo[1,5-a]-pyrimidin-6-yl)thieno[3,2-b]pyridine] has an IC50 of 100 to 499 nM. `Cn1cc(-c2ccc3scc(-c4ccc5nccn5c4)c3n2)cn1` [Preparative Example 57, 3-(imidazo[1,2-a]pyridin-6-yl)-5-(1-methyl-1H-pyrazol-4-yl)thieno[3,2-b]pyridine] showed an IC50 of 20 to 99 nM. `Cn1cc(-c2ccc3scc(-c4ccc5nncn5c4)c3n2)cn1` [Preparative Example 59, 3-([1,2,4]-triazolo[4,3-a]pyridin-6-yl)-5-(1-methyl-1H-pyrazol-4-yl)thieno[3,2-b]pyridine] gave an IC50 of 100 to 499 nM. Molecule `Cn1cc(-c2ccc3scc(-c4cc5ncccn5n4)c3n2)cn1` [Preparative Example 61, 5-(1-methyl-1H-pyrazol-4-yl)-3-(pyrazolo[1,5-a]pyrimidin-2-yl)thieno[3,2-b]pyridine] has an IC50 of 100 to 499 nM.

— patent EP4483954A1 (Masarykova Univerzita, priority 2023, dated 2025)
